Measured values as given in paper PMC10976160, “Comparative Pharmacokinetics Research of 13 Bioactive Components of Jieyu Pills in Control and Attention Deficit Hyperactivity Disorder Model Rats Based on UPLC-Orbitrap Fusion MS” (Molecules, 2024).
Like-named read-outs stand apart in the source and are kept apart here.

Experiment: Pharmacokinetics in control rats after gavage of JYPs
Type: in vivo, Sprague Dawley (SD) rats
Details: for half-life / Tmax / AUC(0-inf) / AUC(0-t) / Cmax / MRT last / MRT inf: male, rat, plasma; for Tmax: po; for MRT last: read-out: MRT(0-t); for MRT inf: read-out: MRT(0-∞)
Source text: According to the established method for the analysis of serum biological samples, the pharmacokinetics of various components of rat serum were investigated after the administration of different dosages of JYPs to control rats.
For the control experiment, healthy male Sprague Dawley (SD) rats of SPF grade ([…] ± 20 g) were purchased from Sipeifu (Beijing) Biotechnology Co., Ltd. (Beijing, China), Animal Quality Certificate No. 110324220102348616. For the ADHD model rats, healthy male SHR rats of SPF grade, weighing 220 ± 20 g, were purchased from SBF (Beijing) Biotechnology Co., Ltd. (Beijing, China), License No. SCXK (Yu) 2019-0010. The animals were accommodated in the Animal Center of Henan University of Traditional Chinese Medicine, which successfully underwent an ethical audit with ethics number DWLL202208003. The animals were bred under controlled conditions at a temperature of 24 °C and a relative humidity of 50 ± 2%. Before the experiment, the animals abstained from eating for 12 h and had unrestricted access to water. The feeding and experimental research conducted on the experimental animals adhered to the laws outlined in the Management of Experimental Animals in Henan Province.
JYPs were ground into a fine powder and sieved through 60-mesh sieves; then, 20 g of fine JYP powder was taken, having been weighed precisely. A precise volume of 50 mL of pure water was added and mixed well to prepare a 0.4 g/mL suspension solution of JYPs, which was then stored in the refrigerator at 4 °C.
This study involved 24 healthy male SD rats with a body mass of 220 ± 20 g and 24 healthy male ADHD rats with a body mass of 220 ± 20 g. Subjects abstained from food for a duration of 12 h before the experiment and consumed water without restriction. Both kinds of rats were randomly divided into four groups: a blank group, given an equal dose of water intragastrically, and 3 different administration groups: rats given the equivalent human dose of JYPs by gavage in doses of 1.080 g/kg/d, 2.160 g/kg/d, and 4.320 g/kg/d. Tail vein blood was collected at 0.083, 0.25, 0.5, 0.75, 1, 1.5, 2, 3, 4, 6, 8, 12, 18, and 24 h after dosing. About 0.5 mL of blood was collected in sodium heparin centrifugal tubes, then centrifuged at 4 °C for 10 min at a speed of 3500r/min. We took the upper layer and placed it at −80 °C for preservation.
We took 200 μL of plasma, added 600 μL of methanol solution and 50 μL of internal standard (100 ng/mL), and subjected it to shaking for 5 min, followed by centrifugation at 4 °C at 12,000 r/min for 10 min. The supernatant was collected and allowed to dry, then reconstituted with 50 μL of 50% methanol and centrifuged at 4 °C at 14,000 r/min for a further 10 min. The supernatant after this process was taken as the test solution. A volume of 5 μL was used for UPLC-MS analysis. The drug concentration in plasma was calculated with the aid of the internal standard.
Chromatographic conditions: Hypersil GOLD (100 × 2.1 mm, 1.9 μm) column; column temperature 35 °C; mobile phase acetonitrile (A)/0.1% formic acid aqueous solution (B); gradient elution; gradient elution program: 0–0.5 min (95% B–95% B), 0.5–8 min (95% B–50% B), 8–14 min (50% B–20% B), 14–20 min (20% B–5% B), 20–22 min (5% B–5% B), 22–25 min (95% B–95% B); flow rate 0.2 mL/min; injection volume 5 μL.

[1] = Sprague Dawley, oral JYPs, range over compounds and doses, read-out: half-life (t1/2)
[2] = Sprague Dawley, oral JYPs, read-out: peak time (Tmax)
[3] = Sprague-Dawley, 1.08 g/kg/day, oral JYPs low dose 1.080 g/kg/d (1st of 3 values)
[4] = Sprague-Dawley, 1.08 g/kg/day, oral JYPs low dose 1.080 g/kg/d (1st of 3 values), read-out: t1/2 (converted)
[5] = Sprague-Dawley, 2.16 g/kg/day, oral JYPs medium dose 2.160 g/kg/d (2nd of 3 values)
[6] = Sprague-Dawley, 2.16 g/kg/day, oral JYPs medium dose 2.160 g/kg/d (2nd of 3 values), read-out: t1/2 (converted)
[7] = Sprague-Dawley, 4.32 g/kg/day, oral JYPs high dose 4.320 g/kg/d (3rd of 3 values)
[8] = Sprague-Dawley, 4.32 g/kg/day, oral JYPs high dose 4.320 g/kg/d (3rd of 3 values), read-out: t1/2 (converted)
[9] = Sprague-Dawley, 1.08 g/kg/day, oral JYPs low dose 1.080 g/kg/d (1st of 3 values), read-out: Tmax
[10] = Sprague-Dawley, 2.16 g/kg/day, oral JYPs medium dose 2.160 g/kg/d (2nd of 3 values), read-out: Tmax
[11] = Sprague-Dawley, 4.32 g/kg/day, oral JYPs high dose 4.320 g/kg/d (3rd of 3 values), read-out: Tmax
[12] = oral JYPs high dose 4.320 g/kg/d (3rd of 3 values)
[13] = oral JYPs low dose 1.080 g/kg/d (1st of 3 values)
[14] = oral JYPs medium dose 2.160 g/kg/d (2nd of 3 values)

half-life [1] | Tmax [2] | AUC(0-inf) [3] | AUC(0-t) [3] | Cmax [3] | MRT inf [3] | half-life [4] | AUC(0-t) [5] | Cmax [5] | MRT last [5] | MRT inf [5] | half-life [6] | AUC(0-inf) [7] | AUC(0-t) [7] | Cmax [7] | MRT last [7] | MRT inf [7] | half-life [8] | Tmax [9] | Tmax [10] | other results | SMILES
14.4 to 24 h | < 2 h | 40.8 ± 9.33 ng·h/mL | 28.7 ± 8.22 ng·h/mL | 3.37 ± 1.11 ng/mL | 20.4 ± 8.24 h | 15.4 ± 5.99 h | 32.7 ± 6.04 ng·h/mL | 4.47 ± 1.9 ng/mL | 8.96 ± 0.63 h | 32 ± 20.9 h | 24 ± 16.9 h | 53.4 ± 9.38 ng·h/mL | 36.5 ± 7.42 ng·h/mL | 5.27 ± 1.27 ng/mL | 8.76 ± 0.37 h | 21.6 ± 6.2 h | 16.4 ± 5.4 h | 1.67 ± 0.52 h | 1.17 ± 0.41 h | MRT last [3]: 8.54 ± 1.12 h; AUC(0-inf) [5]: 58.6 ± 20.7 ng·h/mL; Tmax [11]: 1.13 ± 0.44 h; AUMC(0-t) [12]: 319.41± 64.35 ng/mL*(h)²; AUMC(0-ꝏ) [12]: 1163.41± 438.24 ng/mL*(h)²; AUMC(0-t) [13]: 244.45± 72.75 ng/mL*(h)²; AUMC(0-ꝏ) [13]: 839.61± 369.47 ng/mL*(h)²; AUMC(0-t) [14]: 291.74± 50.18 ng/mL*(h)²; AUMC(0-ꝏ) [14]: 2206.47± 2197.92 ng/mL*(h)² | CCC/C=C1\OC(=O)C2=C1CCC=C2 [Z-Ligustilide]
7.52 to 13.7 h | < 1 h | 97.3 ± 56.5 ng·h/mL | 79.6 ± 44.6 ng·h/mL | 21.5 ± 5.52 ng/mL | 13.4 ± 4.81 h | 11.4 ± 4.14 h | 96.8 ± 29.3 ng·h/mL | 30.1 ± 6.87 ng/mL | 6.87 ± 0.65 h | 13.3 ± 6.43 h | 10.9 ± 6.69 h | 157 ± 34.9 ng·h/mL | 116 ± 12.3 ng·h/mL | 41.8 ± 17.7 ng/mL | 7.1 ± 1.12 h | 16.6 ± 6.52 h | 13.7 ± 5.61 h | 0.43 ± 0.23 h | 0.54 ± 0.1 h | MRT last [3]: 7.08 ± 1.57 h; AUC(0-inf) [5]: 117 ± 33.2 ng·h/mL; Tmax [11]: 0.33 ± 0.13 h; AUMC(0-t) [12]: 830.12± 197.07 ng/mL*(h)²; AUMC(0-ꝏ) [12]: 2785.93± 1472.47 ng/mL*(h)²; Vss [12]: 68432.42 ± 15413.77 mL; AUMC(0-t) [13]: 592.40± 473.29 ng/mL*(h)²; AUMC(0-ꝏ) [13]: 1331.60± 1006.07 ng/mL*(h)²; Clearances [13]: 2081.51 ± 796.95 mL/h; Vss [13]: 27762.67 ± 16738.07 mL; AUMC(0-t) [14]: 662.12± 211.50 ng/mL*(h)²; AUMC(0-ꝏ) [14]: 1586.66± 988.85 ng/mL*(h)²; Vss [14]: 41378.73 ± 24017.48 mL | C[C@H]1O[C@@H](O[C@H]2CC[C@@]3(C)[C@@H](CC[C@]4(C)[C@@H]3C=C[C@]35OC[C@@]6(CCC(C)(C)C[C@H]63)[C@H](O)C[C@]54C)[C@]2(C)CO)[C@H](O)[C@@H](O[C@@H]2O[C@H](CO)[C@@H](O)[C@H](O)[C@H]2O)[C@H]1O [Saikosaponin D]
7.52 to 13.7 h | < 1 h | 135 ± 49.8 ng·h/mL | 120 ± 40.6 ng·h/mL | 38.9 ± 10.4 ng/mL | 9.57 ± 3.88 h | 7.52 ± 2.66 h | 149 ± 49.5 ng·h/mL | 47.4 ± 11.7 ng/mL | 6.42 ± 0.6 h | 13.3 ± 9.41 h | 10.8 ± 9.21 h | 245 ± 44.7 ng·h/mL | 221 ± 42.5 ng·h/mL | 67.4 ± 14.2 ng/mL | 6.07 ± 1.19 h | 9.11 ± 3.69 h | 7.8 ± 3.3 h | 0.53 ± 0.22 h | 0.39 ± 0.17 h | AUMC(0-t) [12]: 1333.05± 317.31 ng/mL*(h)²; AUMC(0-ꝏ) [12]: 2265.45± 1085.76 ng/mL*(h)²; Clearances [12]: 4464.90 ± 760.17 mL/h; AUMC(0-t) [13]: 792.28± 390.55 ng/mL*(h)²; AUMC(0-ꝏ) [13]: 1355.37± 1006.84 ng/mL*(h)²; MRT(0-t) [13]: 6.55 ± 1.64 h; Vss [13]: 21125.87 ± 12315.99 mL; AUC(0-∞) [14]: 177.04 ± 46.52 ng·h/mL; AUMC(0-t) [14]: 935.87± 261.97 ng/mL*(h)²; AUMC(0-ꝏ) [14]: 2307.92± 1659.75 ng/mL*(h)²; Clearances [14]: 3201.17 ± 894.28 mL/h; Vss [14]: 42581.43 ± 30523.07 mL | C[C@H]1O[C@@H](O[C@H]2CC[C@@]3(C)[C@@H](CC[C@]4(C)[C@@H]3C=C[C@]35OC[C@@]6(CCC(C)(C)C[C@H]63)[C@@H](O)C[C@]54C)[C@]2(C)CO)[C@H](O)[C@@H](O[C@@H]2O[C@H](CO)[C@@H](O)[C@H](O)[C@H]2O)[C@H]1O [Saikosaponin A]
